The values below come from patent US20200138764A1, “METHODS AND DEVICES FOR ACTIVATING ADIPOSE TISSUE” (The Procter & Gamble Company, priority 2018, published 2020).

For test [1], the system named is Human subcutaneous pre-adipocytes. Description: Lipogenesis Assay (AdipoRed staining). It is filed as cell-based. The note with it: AdipoRed fluorescence, NI = no inhibition at concentration less than/equal to 1 mM. As to the method:
Lipogenesis is the process by which acetyl-CoA is converted to fatty acid. Through lipogenesis and subsequent triglyceride synthesis, energy can be stored in the form of adipose tissue (i.e. fats). To determine what effect, if any, activating compounds (shown in TABLE 1) had on lipogenesis, the protocol listed below was used.
To determine whether the activating compounds (shown in TABLE 1) impacted the formation of white adipocytes from pre-adipocytes, a lipogenesis assay was performed. The cells utilized in the protocol were cryo-preserved Human subcutaneous pre-adipocytes superlot (Zen-Bio, Inc., Research Triangle Park, N.C., Cat # SP-F-SL). The growth media used was PM-1 (Zen-Bio, Inc., Research Triangle Park, N.C., cat # PM-1) plus 5 ng/mL Epidermal Growth Factor (EGF). The PM-1+5 ng/mL EGF was prepared by adding 12.5 uL of 200 ug/mL EGF stock to 500 mL PM-1. The differentiation media used was DM-2 (Zen-Bio, Inc., Research Triangle Park, N.C., cat # DM-2). The adipocyte maintenance media used was AM-1 (Zen-Bio, Inc., Research Triangle Park, N.C., cat # AM-1).
First, the human subcutaneous pre-adipocyte cells were thawed in a 37° C. water bath. Next, the thawed pre-adipocyte cells were added to 9 mL of growth medium (PM-1) at 20° C. in a 15 mL polypropylene tube (Bioexpress, Corning, Corning, N.Y.). The tube was centrifuged at 280×g (˜1100 rpm) at 20° C. for 5 min. After 5 min, the supernatant was removed and the accumulated solids were re-suspended in 2 mL of PM-1 using trituration. The suspension of cells was counted under 100× magnification using a Cyto C-Chip hemacytometer (Incyto, Seoul, South Korea, cat # DHC-N01-5). In order to proceed, 15-50 cells per 1×1 mm square in hemacytometer was needed. If, the number of cells per square was not met, 6.7×10^5 (670,000) cells per T75 flask (Bioexpress, Corning, Corning, N.Y.) were added to each square and the suspension was diluted to 20 mL with PM-1. Every other day, new media was added to replace media removed due to metabolism by the cells. The cells were re-counted as described previously. Cells were grown to 80-90% confluence, which took approximately 4-5 days. 80-90% confluence is determined by visual inspection of the area of the flask occupied by the cells. When 80-90% of the flask area has been occupied, cells are at 80-90% confluence. Cell colonies were then split 1:6 by harvesting from a single flask and equally dividing the harvested cells into six flasks. Colonies were not allowed to exceed 3 passages and were not grown to complete confluence. The pre-adipocytes were grown until they contact with other cells in the flask to aid differentiation into white or brown adipocytes.
After the pre-adipocytes were sufficiently grown to 90% confluence, the cells were ready for differentiation and treatment with an activating compound. Cells were washed with 3 mL of PBS and detached using 3 mL of Trypsin EDTA. The cells were incubated at 37° C. for 5 minutes. Next, the cells were centrifuged at 280×g at 20° C. for 5 minutes. The supernatant was discarded and the resulting pellet was re-suspended in 10 mL of PM-1 using trituration. Cells were counted at 100× magnification and the cells were diluted to 86,667 cells/mL (˜13,000 cells/150 μL) by adding the necessary amount of PM-1 to achieve the desired concentration. Upon addition of PM-1, samples were swirled by hand to evenly disperse the cells prior to plating.
Once confluence is reached, 150 μL of differentiation media (DM-2) was added (DAY 0). Samples were incubated at 37° C. for 6 days. On DAY 6, 90 μL of media was removed from each sample via aspiration, without touching the bottom of the well. Next, 140 μL of adipocyte maintenance medium (AM-1) was added. The AM-1 ran down the side of well. On DAY 6, activating compounds were added (2 μL of 10 mM activating compound) to give a final concentration of 100 μM of activating compounds. […]

In another test the test system is adipocytes. Description: Real Time PCR analysis of adipocytes, in vitro. The test is classed as cell-based, human. The note with it: Real Time PCR, relative to untreated control = 1. As to the method: For Real Time PCR analysis of adipocytes, cells from cultures grown in 24 well plates were collected. RNA was isolated using RNeasy Kit (Cat 74104, Qiagen, Germantown, Md.) using manufacturer's protocol. RNA was quantitated using the Nanodrop 1000 (Thermofisher, Waltham, Mass.). cDNA formation was carried out using PowerUp SYBR™ Green Master Mix and real time PCR carried out on QuantStudio 6 machine (ThermoFisher, Waltham, Mass.) per manufacturer protocol. ΔΔCT analysis was done using the Expression Suite software (ThermoFisher) purchased with the instrument.
TABLE 2 used Real Time PCR to determine which proteins were expressed in adipocytes upon treatment with activating compounds. […] Real Time PCR values were relative to a control sample that was not treated with any activating compounds. […] In WS-5 and Menthol, no Real Time PCR value was over 2.0, which indicated only slight changes in mRNA expression.
On the technique in general: Real-time PCR tracks product formation cycle by cycle.

Broadly, the IC50 is the concentration at which inhibition is half-maximal. Read a low IC50 as higher potency. In turn, `CC(C)[C@@H]1CC[C@@H](C)C[C@H]1C(=O)NC[C@@H](NC(=O)[C@H](C)N)c1ccccc1` [Formula III] displayed an IC50 in test [1] (Homo sapiens) of 25 µM. Besides, in the test on adipocytes, the “Relative Expression of mRNA in Adipocytes: 18S” value (from here on “Relative Expression … 18S”) was determined as 1, the “Relative Expression of mRNA in Adipocytes: ACADM” value (“Relative Expression … ACADM” below) worked out at 1.75, the “Relative Expression of mRNA in Adipocytes: CPT1A” value (“Relative Expression … CPT1A” for short) was found to be 1.7 and the “Relative Expression of mRNA in Adipocytes: FASN” value (from here on “Relative Expression … FASN”) was 1.85. Moreover, in the test on adipocytes, the “Relative Expression of mRNA in Adipocytes: GAPDH” value (“Relative Expression … GAPDH” for short) amounted to 1, the “Relative Expression of mRNA in Adipocytes: PPARGC1A” value (from here on “Relative Expression … PPARGC1A”) is listed as 0.8 and the “Relative Expression of mRNA in Adipocytes: PRDM16” value (“Relative Expression … PRDM16” for short) came out at 0.6.
For the compound `CC1CCC(C(C)C)C(O)C1` (stereo not shown) [Menthol], the “Lipogenesis IC50” value in test [1] is “no inhibition”. Moreover, the half-inhibitory concentration (IC50) in test [1] (Homo sapiens) is over 1000 µM. Also, in the test with adipocytes, the “Relative Expression … 18S” value was 1, the “Relative Expression … ACADM” value is listed as 1.45, the “Relative Expression … CPT1A” value was 1.35 and the “Relative Expression … FASN” value amounted to 1.45. Moreover, in the test with adipocytes, the “Relative Expression … GAPDH” value is reported as 1, the “Relative Expression … PPARGC1A” value is recorded as 2.0, the “Relative Expression … PRDM16” value is recorded as 0.75 and the “Relative Expression of mRNA in Adipocytes: UCP-1” value is 1.7.
Regarding `CCOC(=O)CNC(=O)[C@@H]1C[C@H](C)CC[C@H]1C(C)C` [WS-5], in test [1], the midpoint of inhibition, the IC50, lay at 600 µM. This compound also came in with a half-inhibitory concentration (IC50) in test [1] (Homo sapiens) of 500 µM. In addition, in the test with adipocytes, the “Relative Expression … 18S” value amounted to 0.85, the “Relative Expression … ACADM” value amounted to 1.45, the “Relative Expression … CPT1A” value turned out to be 1.5 and the “Relative Expression … FASN” value came out at 2.0. Moreover, in the test with adipocytes, the “Relative Expression … GAPDH” value was found to be 1, the “Relative Expression … PPARGC1A” value came to 1.7, the “Relative Expression … PRDM16” value is 1.3 and the “Relative Expression of mRNA in Adipocytes: UCP-1” value stood at 1.5.
